The test system of one series is JURKAT human T-cell line. Briefly: Secondary assay: cell proliferation WST-1, Jurkat. It is filed as cell-based. Conditions: 48 h, read-out: Cell Proliferation Inhibition WST-1 (IC50 unless otherwise specified) Jurkat. In general terms: Formazan colour is commonly taken as a measure of viable cells.
The test system of series [1] is NHEK-Ad primary human adult keratinocyte line. Briefly: Secondary assay: cell proliferation WST-1, NHEK-Ad. It is filed as cell-based. Conditions: 48 h, read-out: Cell Proliferation Inhibition WST-1 (IC50 unless otherwise specified) NHEK-AD. The protocol: Compounds with HDAC inhibition activity, as determined using the primary assay, were subsequently evaluated using secondary cell-based assays. The following cell lines were used:
NHEK-Ad—Primary human adult keratinocyte line (Cambrex Corp., East Rutherford, N.J., USA).
Cells were plated in 96-well plates at 3-10×10^3 cells/well in 100 μL of culture medium. The following day, different concentrations of candidate compounds were added and the cells incubated at 37° C. for 48 h. Subsequently, 10 μL/well of WST-1 reagent was added and the cells reincubated for 1 hour. After the incubation time, absorbance was measured.
WST-1 is a tetrazolium salt which is cleaved to formazan dye by cellular enzymes. An expansion in the number of viable cells results in an increase in the overall activity of mitochondrial dehydrogenases in the sample. This augmentation in the enzyme activity leads to an increase in the amount of formazan dye formed, which directly correlates to the number of metabolically active cells in the culture. The formazan dye produced is quantified by a scanning multiwell spectrophotometer by measuring the absorbance of the dye solution at 450 nm wavelength (reference wavelength 690 nm).
Percent activity (% activity) in reducing the number of viable cells was calculated for each test compound as: % activity={(S^C−B)/(S^o−B)}×100 wherein S^C denotes signal measured in the presence of the compound being tested, S^o denotes signal measured in the absence of the compound being tested, and B denotes the background signal measured in blank wells containing medium only.
IC50 values were calculated using the software package Prism 3.0 (GraphPad software Inc., San Diego, Calif.), setting top value at 100 and bottom value at 0.

Series [2] has as its system K11 HPV E7 transformed human keratinocyte line. Briefly: Secondary assay: cell proliferation WST-1, K11. It is filed as cell-based. Conditions: read-out: Cell Proliferation Inhibition WST-1 (IC50 unless otherwise specified) K11.
For another series, the system named is HeLa cells. Briefly: Secondary assay: cell proliferation WST-1, HeLa. It is filed as cell-based. Conditions: Homo sapiens, 48 h, read-out: Cell Proliferation Inhibition WST-1 (IC50 unless otherwise specified) HeLa. Put shortly: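 Absorbance at 450 nm (reference 690 nm); % activity vs untreated after blank subtraction, IC50 fitted with top 100 and bottom 0.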

A further series addresses T1, human HDAC2 (Homo sapiens, UniProt Q92769).
T1 construct: Full length human HDAC2 was subcloned; Flag (C); His6 (from pAcHLT-A vector; purified on Ni-NTA) (N); made in house; host or cells: SF9 insect cells (baculovirus)
Description: Primary assay: deacetylase activity, recombinantly produced HDAC2. It is filed as biochemical. Conditions: recombinant HDAC2; read-out: HDAC Inhibition (IC50 unless otherwise specified) HDAC2. An excerpt:
(§1) Briefly, this assay relies on the release of radioactive acetate from a radioactively labelled histone fragment by the action of HDAC enzyme. Test compounds, which inhibit HDAC, reduce the yield of radioactive acetate. Signal (e.g., scintillation counts) measured in the presence and absence of a test compound provide an indication of that compound's ability to inhibit HDAC activity. Decreased activity indicates increased inhibition by the test compound.
(§2) The histone fragment was an N-terminal sequence from histone H4, and it was labelled with radioactively labelled acetyl groups using tritiated acetylcoenzyme A (coA) in conjunction with an enzyme which is the histone acetyltransferase domain of the transcriptional coactivator p300. […] The acetylated peptide was then separated from free acetyl coA by size exclusion chromatography on Sephadex G-15 (Sigma G-15-120), using distilled H2O as the mobile phase.
(§3) After purification of the radiolabelled histone fragment, it was incubated with a source of HDAC (e.g., an extract of HeLa cells (a rich source of HDAC), recombinantly produced HDAC1 or HDAC2) and any released acetate was extracted into an organic phase and quantitatively determined using scintillation counting. By including a test compound with the source of HDAC, that compound's ability to inhibit the HDAC was determined.
(§4) Amplification of recombinant viruses was performed according to the Pharmingen Instruction Manual.
(§5) For protein production, 2×10^7 cells were infected with the appropriate recombinant virus for 3 days. Cells were then harvested and spun at 3,000 rpm for 5 minutes. They were then washed twice in PBS and resuspended in 2 pellet volumes of lysis buffer (25 mM HEPES pH 7.9, 0.1 mM EDTA, 400 mM KCl, 10% glycerol, 0.1% NP-40, 1 mM AEBSF). Resuspended cells were frozen on dry ice and thawed at 37° C. 3 times and centrifuged for 10 minutes at 14,000 rpm. […] Incubation was carried out at 4° C. for 1 hour on a rotating wheel. The slurry was then centrifuged at 500 g for 5 minutes. Beads were washed twice in 1 ml of wash buffer (25 mM HEPES pH7.9, 0.1 mM EDTA, 150 mM KCl, 10% glycerol, 0.1% NP-40, 1 mM AEBSF). Protein was eluted 3 times in 300 μl elution buffer (25 mM HEPES pH 7.9, 0.1 mM EDTA, 250 mM KCl, 10% glycerol, 0.1% NP-40, 1 mM AEBSF) containing increasing concentrations of imidazole: 0.2 M, 0.5 M and 1 M. Each elution was performed for 5 minutes at room temperature. Eluted protein was kept in 50% glycerol at −70° C.
(§6) A source of HDAC (e.g., 2 μL of crude HeLa extract, 5 μL of HDAC1 or HDAC2; in elution buffer, as above) was incubated with 3 μL of radioactively labelled peptide along with appropriate dilutions of candidate compounds (1.5 μL) in a total volume of 150 μL of buffer (20 mM Tris pH 7.4, 10% glycerol). The reaction was carried out at 37° C. for one hour, after which the reaction was stopped by adding 20 μL of 1 M HCl/0.4 M sodium acetate. […] Radioactivity was measured using a Tri-Carb 2100TR Liquid Scintillation Analyzer (Packard).
(§7) Percent activity (% activity) for each test compound was calculated as: % activity={(S^C−B)/(S^o−B)}×100 wherein S^C denotes signal measured in the presence of enzyme and the compound being tested, S^o denotes signal measured in the presence of enzyme but in the absence of the compound being tested, and B denotes the background signal measured in the absence of both enzyme and compound being tested.

In a further series the test system is HDAC (HeLa cell extract). Description: Primary assay: deacetylase activity, HeLa cell extract as source of HDAC. It is filed as biochemical, human. Put shortly:
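Crude HeLa extract (freeze-thaw in 60 mM TrisCl pH 8.0, 450 mM NaCl, 30% glycerol) was incubated 1 h at 37° C with a [³H]acetyl-labelled histone H4 N-terminal peptide in 20 mM Tris pH 7.4, 10% glycerol.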

The next series addresses T2, human HDAC1 (Homo sapiens, UniProt Q13547).
T2 construct: Full length human HDAC1 was cloned by PCR; Flag (C); His6 (from pAcHLT vector; purified on Ni-NTA) (N); made in house; host or cells: SF9 insect cells (baculovirus)
Briefly: Primary assay: deacetylase activity, recombinantly produced HDAC1. It is filed as biochemical. Conditions: recombinant HDAC1; read-out: HDAC Inhibition (IC50 unless otherwise specified) HDAC1.
From the text: as §1, §2, §3
Full length human HDAC1 was cloned by PCR using a λgt11 Jurkat cDNA library (Clontech-HL5012b). The amplified fragment was inserted into the EcoRI-Sall sites of pFlag-CTC vector (Sigma-E5394), in frame with the Flag tag. A second PCR was carried out in order to amplify a fragment containing the HDAC1 sequence fused to the Flag tag.
as §4, §5, §6, §7

Setting [3] is: Homo sapiens, Keratinocyte, 48 h.
The mark [4] stands for this setting: Homo sapiens, Keratinocyte, NHEK-AD.
The mark [5] stands for this setting: HeLa cell extract, read-out: HDAC Inhibition (IC50 unless otherwise specified) HeLa.

The melting point is the temperature of the solid-liquid transition.

Where two headings read alike, the source gives them in different places.

T2 sequence (Q13547 whole entry): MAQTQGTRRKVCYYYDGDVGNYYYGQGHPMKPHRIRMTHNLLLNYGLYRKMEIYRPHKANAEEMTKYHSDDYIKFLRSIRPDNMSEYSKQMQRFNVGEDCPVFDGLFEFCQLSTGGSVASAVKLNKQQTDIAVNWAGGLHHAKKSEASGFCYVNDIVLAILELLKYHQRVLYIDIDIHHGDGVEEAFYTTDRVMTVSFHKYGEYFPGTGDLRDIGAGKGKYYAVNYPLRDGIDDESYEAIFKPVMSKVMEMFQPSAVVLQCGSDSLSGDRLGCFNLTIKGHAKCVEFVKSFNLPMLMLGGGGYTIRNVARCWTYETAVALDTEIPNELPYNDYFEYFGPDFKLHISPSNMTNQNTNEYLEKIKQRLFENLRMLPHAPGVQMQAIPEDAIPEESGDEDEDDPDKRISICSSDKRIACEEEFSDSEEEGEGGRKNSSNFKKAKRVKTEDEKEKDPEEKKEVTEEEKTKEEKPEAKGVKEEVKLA
T1 sequence (Q92769 whole entry): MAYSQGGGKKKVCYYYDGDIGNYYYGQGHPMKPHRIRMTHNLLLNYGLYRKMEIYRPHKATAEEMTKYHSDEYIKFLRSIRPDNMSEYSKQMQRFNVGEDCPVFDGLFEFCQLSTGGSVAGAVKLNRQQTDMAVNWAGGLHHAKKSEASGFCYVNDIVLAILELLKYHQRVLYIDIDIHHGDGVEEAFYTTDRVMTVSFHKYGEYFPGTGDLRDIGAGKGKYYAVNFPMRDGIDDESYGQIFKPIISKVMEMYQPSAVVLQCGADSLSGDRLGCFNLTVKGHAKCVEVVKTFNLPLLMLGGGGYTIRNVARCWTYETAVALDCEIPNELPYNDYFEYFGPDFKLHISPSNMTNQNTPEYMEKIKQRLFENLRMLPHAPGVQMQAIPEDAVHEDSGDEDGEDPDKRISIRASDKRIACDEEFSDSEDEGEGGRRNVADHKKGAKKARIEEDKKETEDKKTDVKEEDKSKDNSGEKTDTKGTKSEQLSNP

With `Nc1ccccc1NC(=O)c1ccc(CNC(=O)OCc2cccnc2)cc1` [MS-275, reference compound], the IC50 in the series on JURKAT human T-cell line was determined as 365 nM; in series [1] (NHEK-AD), 3100 nM; in series [2] (K11, 48 h), 9160 nM.
On to `O=C(/C=C/C#Cc1cccc(NS(=O)(=O)c2ccccc2)c1)NO` [Oxamflatin, (2E)-5-[3-[(phenylsulfonyl)amino]phenyl]-pent-2-en-4-ynohydroxamic acid, reference compound], for which the IC50 in the series with JURKAT human T-cell line (Homo sapiens) amounted to 260 nM; in series [1] (Homo sapiens, Keratinocyte), 3530 nM; in the series with HeLa cells, 1100 nM; in series [2] (setting [3]) it was 4560 nM.
`O=C(/C=C/C=C/c1ccccc1)NCCCCCC(=O)NO` [PX105553, 4-(2E)(4E)-5-Phenyl-penta-2,4-dienoic acid (5-hydroxycarbamoyl-pentyl)-amide]: the IC50 amounted to 3700 nM in the series with JURKAT human T-cell line (Homo sapiens); 47 nM at human HDAC2; 2400 nM in series [1] (setting [4]); 18 nM with HDAC (HeLa cell extract) (setting [5]); 5700 nM in the series with HeLa cells; 7500 nM in series [2] (setting [3]). In addition, the IC50 at human HDAC1 worked out at 38 nM.
The molecule `O=C(/C=C\C=C\c1ccc(Cl)cc1)NCCCCCC(=O)NO` [PX105849, (2Z,4E)-5-(4-Chlorophenyl)penta-2,4-dienoic acid (5-hydroxycarbamoylpentyl)-amide] registered a melting point of 158 to 160 °C. Also, the IC50 on human HDAC2 worked out at 63 nM. Further, in the series with HDAC (HeLa cell extract) (setting [5]), the IC50 was 29 nM. Moreover, the IC50 with HeLa cells stood at 5300 nM. Besides, the IC50 on human HDAC1 stood at 50 nM.
The corresponding values for `O=C(/C=C/C=C/c1ccc(Cl)cc1)NCCCCCC(=O)NO` [PX105850, (2E,4E)-5-(4-Chlorophenyl)penta-2,4-dienoic acid (5-hydroxycarbamoylpentyl)-amide] are 164 to 168 °C, 75 nM, 28 nM, 6300 nM and 25 nM.
On to `O=C(/C=C/C=C/c1ccccc1)NCCCCCCCC(=O)NO` [PX105851], for which the melting point was in the range of 160 to 162 °C. Besides, on human HDAC2, the IC50 came out at 50 nM. Besides, in the series with HDAC (HeLa cell extract) (setting [5]), the IC50 was determined as 18 nM. Besides, the IC50 in the series with HDAC (HeLa cell extract) (comparative tables, HeLa cell extract, no unit in cell, read-out: HeLa IC50) came out at 18 nM. The IC50 in the series with HeLa cells was 4200 nM. For the same molecule, the IC50 at human HDAC1 amounted to 12 nM.
In the case of `O=C(/C=C/c1c[nH]c2ccccc12)NCCCCCC(=O)NO` [PX116220, N-(5-Hydroxycarbamoyl-pentyl)-3-(1-N-indol-3-yl)-acrylamide], the melting point lay within 92 to 94 °C. The IC50 in the series with JURKAT human T-cell line (Homo sapiens) came out at 4500 nM. For the same molecule, the IC50 in series [1] (setting [4]) was determined as 2400 nM. In the series with HDAC (HeLa cell extract) (setting [5]), the IC50 is 6.3 nM. In addition, the IC50 in the series on HeLa cells was 3700 nM. In addition, the IC50 in series [2] (setting [3]) is 9500 nM.
`O=C(CCCCCCC(=O)Nc1ccc2ccccc2c1)NO` [PX116223, Octanedioic acid hydroxyamide naphthalen-2-ylamide]: the melting point was in the range of 142.5 to 144 °C. For the same molecule, the IC50 with JURKAT human T-cell line (Homo sapiens) amounted to 220 nM. Also, the IC50 in series [1] (setting [4]) turned out to be 1300 nM. Also, the IC50 with HDAC (HeLa cell extract) (setting [5]) was less than 12.5 nM. The IC50 in the series with HeLa cells was less than 310 nM. Also, in series [2] (setting [3]), the IC50 was found to be 1700 nM.
Consider `O=C(/C=C/c1ccc2ccccc2c1)NCCCCCC(=O)NO` [PX116232, E-N-(5-Hydroxycarbamoylpentyl)-3-naphthalen-2-yl-acrylamide], for which the IC50 was found to be 7300 nM in the series with JURKAT human T-cell line (Homo sapiens); 1700 nM in series [1] (setting [4]); 10 nM with HDAC (HeLa cell extract) (setting [5]); 18300 nM in the series with HeLa cells; 2700 nM in series [2] (setting [3]).
Consider `O=C(C=C1c2ccccc2-c2ccccc21)NCCCCCC(=O)NO` [PX117456, 6-(2-Fluoren-9-ylideneacetylamino)hexanoic acid hydroxyamide], for which the IC50 in the series on JURKAT human T-cell line (Homo sapiens) worked out at 180 nM; in series [1] (Homo sapiens, Keratinocyte), 250 nM; in the series on HDAC (HeLa cell extract) (read-out: HDAC Inhibition (IC50 unless otherwise specified) HeLa) it was 3 nM; in the series with HeLa cells, 650 nM; in series [2] (setting [3]), 740 nM.
For `CC(/C=C/C(=O)NO)=C\[C@@H](C)C(=O)c1ccc(N(C)C)cc1` [TSA, trichostatin A, reference compound], the IC50 in the series on JURKAT human T-cell line (Homo sapiens) amounted to 42 nM; in series [1] (Homo sapiens, Keratinocyte), 200 nM; with HeLa cells, 350 nM; in series [2] (setting [3]), 380 nM.

For the origin of these results see US7569724B2, “Carbamic acid compounds comprising an amide linkage as HDAC inhibitors” (Topotarget UK Limited, priority 2000, dated 2009).
